Measured values taken from patent US5230899A, “Methods and compositions for making liposomes” (SmithKline Beecham Corporation, priority 1991, dated 1993).
Blank lines part the entries; values can stand above or below the compound they belong to.

How the values were obtained:
[1] = Efficiency of encapsulation / entrapment of drugs in DPPC:oleic acid:Arg (1:1:1) liposomes; format: physicochemical; conditions: 10 mg/ml DPPC:oleic acid:Arg (1:1:1) liposomes
Protocol: A number of drugs were encapsulated with 10 mg/ml DPPC:oleic acid:[MUT]:1:1) liposomes to illustrate medicament encapsulation for use as a drug delivery system.

[2] = in vivo; conditions: rat, iv, 5 mg/kg
Protocol: The bioavailibility of indomethacin in a gel formulation was compared with that of a suspenison of indomethacin, both being compared with an IV dose. Rats were dosed with 5 mg/Kg of indomethacin. Oleic acid, arginine and phosphatide #5 (described above) in the a the ratio 1:1:1 was used to make the gel. […] Blood levels were measured 0-30 hours.

SMILES: CNCC(O)c1ccc(OC(=O)C(C)(C)C)c(OC(=O)C(C)(C)C)c1 (stereo not drawn) [Dipivalyl Epinephrine]
% Entrapment ([1]; pH 7.1 PBS): 80%

% Entrapment ([1]; pH 7.8 PBS): 90%
SMILES: CC(C(=O)O)c1ccc(-c2ccccc2)c(F)c1 (stereo not drawn) [Flurbiprofen]

C0 [2]: 117 µg/mL
SMILES: COc1ccc2c(c1)c(CC(=O)O)c(C)n2C(=O)c1ccc(Cl)cc1 [indomethacin]
